Holding throughout (experiment): inhibition of tumour cell growth, NCI panel, 48 h
Experiment [1] has as its system A498 renal.
The test system of experiment [2] is NCI-H460 lung.
In experiment [3] the test system is HS 578T breast.
Experiment [4] concerns SF-268 CNS.
Experiment [5] deals with DU-145 prostate.
The test system of experiment [6] is A549 NSCLC.
The subject of experiment [7] is SF-295 CNS.
The test system of experiment [8] is NCI/ADR-RES ovarian.
Experiment [9] has as its system MALME-3M melanoma.
In experiment [10] the test system is OVCAR-5 ovarian.
The subject of experiment [11] is SNB-19 CNS.
The test system of experiment [12] is SK-MEL-5 melanoma.
The subject of experiment [13] is IGROV1 ovarian.
In experiment [14] the test system is SK-MEL-28 melanoma.
Experiment [15] relates to OVCAR-4 ovarian.

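Exposure lasted 48 hours, with cells grown in 96-well plates and compounds tested at five concentrations. TGI marks complete inhibition of growth.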 Bounds are passed on as bounds.

For the molecule `O=C(O)[C@@H]1CSCN1C(=O)[C@@H]1CCC(=S)N1`, the TGI in experiment [1], in [2], in experiment [3], in experiment [4], in experiment [5] and in [6] was over 100 µM each time. Besides, the TGI in [7], in experiment [8], in [9], in experiment [10], in experiment [11] and in experiment [12] was over 100 µM each time. Besides, the TGI in experiment [13] and in experiment [14] was over 100 µM in each case.

In the case of `CC12CCC([C@H](C(O)C3CCCCC3)C1=O)C2(C)C` (stereo partly specified), the TGI in [1], in experiment [2], in [3], in experiment [4], in [5] and in experiment [7] was over 100 µM each time. Moreover, the TGI in experiment [8], in [15], in experiment [10], in experiment [11], in [12] and in [13] was over 100 µM each time.

In the case of `COc1ccc(C2C3=C(Nc4ncnn42)c2ccccc2OC3c2ccccc2)cc1` (stereo unspecified), the TGI in experiment [1] is 6.36 µM; in experiment [2], over 100 µM; in experiment [3], over 100 µM; in [4], over 100 µM; in experiment [5], over 100 µM; in [6] it was over 100 µM. In addition, the TGI in [7] was over 100 µM; in experiment [8], over 100 µM; in experiment [10] it was over 100 µM; in [11], over 100 µM; in [12], 62.7 µM; in experiment [13], over 100 µM.

Regarding `NC(CCC(=O)O)C(=O)N1CCN(c2nc(N3CCCC3)c3nc(Cl)c(NCc4ccccc4)nc3n2)CC1` (stereo unspecified), the TGI in [2] turned out to be 24.9 µM; in experiment [3], 60.2 µM; in [4], 29.1 µM; in experiment [5] it was 21.9 µM; in [6], 26.1 µM; in [7], 26.7 µM. The TGI in [8] was determined as 46.2 µM; in experiment [15], 29.1 µM; in [9], 33.6 µM; in [10], 33.5 µM; in experiment [11] it was 34.4 µM; in [12], 20.9 µM. Besides, the TGI in [13] came out at 40 µM; in experiment [14] it was 27.7 µM.

On to `C/C=C(/C)C(=O)O[C@H]1C[C@@H]2[C@@H](O)c3occ(C)c3C[C@]2(C)[C@@H](C)C1`, for which the TGI in experiment [2] was found to be 46.8 µM; in experiment [3] it was 66.7 µM; in experiment [4], 31 µM; in [5], 28.2 µM; in experiment [7], 28.9 µM; in experiment [8], 28.3 µM. The TGI was determined as 32.6 µM in [15]; 29.2 µM in experiment [9]; 34.8 µM in [10]; 31.5 µM in [11]; 22.6 µM in experiment [12]; 30.8 µM in [13]. In [14], the TGI came to 29.9 µM.

With `CC(=O)N[C@@H](Cc1ccc(O)cn1)C(=O)NCc1cccc(Cl)c1`, the TGI in experiment [1], in [2], in experiment [3], in experiment [4], in [5] and in experiment [6] was over 100 µM throughout. For the same molecule, the TGI in experiment [7], in experiment [8], in [15], in [10], in experiment [11] and in experiment [12] was over 100 µM each time. For the same molecule, the TGI in experiment [13] and in [14] was over 100 µM each time.

With `O=C(O)Cc1cccc2c1OC(c1ccccc1)C(Cl)(C(=O)c1ccccc1)C2=O` (stereo unspecified), the TGI is 55.8 µM in [2]; 99.6 µM in experiment [3]; 76.1 µM in experiment [4]; 65.3 µM in experiment [5]; 86 µM in experiment [6]; 66.3 µM in experiment [7]. For the same molecule, the TGI in experiment [8] is over 100 µM; in [9], 34.9 µM; in [11], over 100 µM; in experiment [12], 28.6 µM; in experiment [13] it was 28.9 µM; in [14] it was 29.1 µM.

As to `Cc1ccc(N=Nc2c(C)c(C#N)c(=S)n(C3OC(CO)C(O)C(O)C3O)c2C)cc1` (stereo unspecified), the TGI in [2] is 91.3 µM; in [3], over 100 µM; in experiment [4] it was over 100 µM; in experiment [5] it was over 100 µM; in [6], over 100 µM; in experiment [7] it was over 100 µM. Besides, the TGI is over 100 µM in experiment [8]; over 100 µM in [15]; 42.7 µM in experiment [9]; over 100 µM in experiment [10]; over 100 µM in experiment [11]; 35 µM in [12]. In addition, the TGI is over 100 µM in [13] and 44.7 µM in [14].

Take `CC(=O)OCCOCn1cnc2c(Cl)nc(Cl)nc21`: the TGI is 91.2 µM in experiment [1]; 35 µM in [2]; 40.4 µM in experiment [3]; 36.6 µM in [4]; 36.5 µM in [5]; 57.5 µM in experiment [8]. Moreover, the TGI is 37.5 µM in experiment [15]; 33.3 µM in experiment [9]; 36.9 µM in experiment [10]; over 100 µM in experiment [11]; 33 µM in [12]; 30.6 µM in experiment [13].

With `O=C(Cc1ccccc1)N/N=C/c1ccccc1O`, the TGI in experiment [2] was 57.1 µM; in experiment [3] it was over 100 µM; in [4], over 100 µM; in experiment [5], over 100 µM; in [6], over 100 µM; in [7], 85.2 µM. Also, the TGI in experiment [8] is over 100 µM; in [15], over 100 µM; in experiment [9] it was 66.6 µM; in experiment [10], over 100 µM; in experiment [11], over 100 µM; in [12], 49.4 µM. Moreover, the results for the TGI in experiment [13] and in experiment [14] were 81.8 µM and over 100 µM, respectively.

These data come from PubChem BioAssay (NCI).
